The values that follow come from patent US12297194B2, “N2-phenylpyrimidine-2,4-diamine compounds, and preparation methods and methods of use thereof” (BRIDGE BIOTHERAPEUTICS, INC., priority 2021, dated 2025).

What all share (format): cell-based, murine
One test has as its target Ba/F3 EGFR Wild-type (Homo sapiens, UniProt P00533). Kind of test: CellTiter-Glo cell viability, Ba/F3 EGFR wild-type cells. The note with it: 72 hours, read-out: Ba/F3 EGFR mutant cell (IC50, nM) WT. Here is the method:
(§1) In order to evaluate an inhibitory ability on wild-type Ba/F3 EGFR and Ba/F3 EGFR mutations in Ba/F3 cell lines by the compounds of Formula 1, the experiment was carried out as described below.
(§2) The measurement of activities on Ba/F3 cells harboring wild-type EGFR and EGFR mutants by the compounds of the present invention were determined utilizing the CELLTITER-GLO™ system from Promega, as follows. The CELLTITER-GLO™ assay is a method for measuring the ATP present in cells to determine the cell viability. Ba/F3 EGFR wild-type and Ba/F3 EGFR L858R/C797S (L/C), Ba/F3 EGFR L858R/T790M/C797S (L/T/C), Ba/F3 EGFR Del19/T790M (D/T), Ba/F3 EGFR Del19/C797S (D/C), Ba/F3 EGFR Del19/T790M/C797S (D/T/C) mutant cell lines were maintained in RPMI1640, containing […], 1% penicillin-streptomycin, […] puromycin. Cells were grown in a humidified incubator at 37° C. with […].
(§3) The analysis of an EGFR inhibitory activity by the compounds was carried out in accordance with the analysis reaction recipe below.
(§4) 2500 cells/90 μL were seeded in 96 well cell culture plate, and after 24 hours, treated with the compounds represented by Formula 1 in concentrations of 0, 0.3, 0.9, 2.7, 8.2, 24.7, 74.1, 222.2, 666.7, 2000 (nM). After the reaction of 72 hours, the plate was incubated for 30 minutes at ambient temperature, and then, was further treated with 100 μL of the CELLTITER-GLO™ reagent and was shaken for 10 minutes at ambient temperature. Finally, measurement of the luminescence values were obtained using the SPECTRAMAX™ iD3 (Molecular Devices), and the IC50 values of the compound were analyzed using the GraphPad Prism program (version 9.0.2, GraphPad Software, Inc.).
A general note: Cellular ATP, detected with luciferase, serves as a proxy for viable cell number.

For test [1], the target named is Ba/F3 EGFR L858R/C797S mutants (Homo sapiens, UniProt P00533, C797S/L858R, cells depend on it). Kind of test: CellTiter-Glo cell viability, Ba/F3 EGFR L858R/C797S cells. The note with it: 72 hours, read-out: Ba/F3 EGFR mutant cell (IC50, nM) L/C. Here is the method:
as §1, §2, §3, §4

Test [2] deals with Ba/F3 EGFR L858R/T790M/C797S mutants (Homo sapiens, UniProt P00533, T790M/C797S/L858R, cells depend on it). The experiment in a line: CellTiter-Glo cell viability, Ba/F3 EGFR L858R/T790M/C797S cells. The note with it: 72 hours, read-out: Ba/F3 EGFR mutant cell (IC50, nM) L/T/C. On the procedure: as §1, §2, §3, §4
Test [3] addresses Ba/F3 EGFR Del19/C797S mutants (Homo sapiens, UniProt P00533, C797S, cells depend on it, form not given). The experiment in a line: CellTiter-Glo cell viability, Ba/F3 EGFR Del19/C797S cells. Particulars: 72 hours, read-out: Ba/F3 EGFR mutant cell (IC50, nM) D/C. Here is the method: as §1, §2, §3, §4
For test [4], the target named is Ba/F3 EGFR Del19/T790M/C797S mutants (Homo sapiens, UniProt P00533, T790M/C797S, cells depend on it, form not given). The experiment in a line: CellTiter-Glo cell viability, Ba/F3 EGFR Del19/T790M/C797S cells. Particulars: 72 hours, read-out: Ba/F3 EGFR mutant cell (IC50, nM) D/T/C. On the procedure:
as §1, §2, §3, §4

Each structure is given as a SMILES string.

Chain of Ba/F3 EGFR Del19/T790M/C797S mutants (P00533 with tags, fused parts or gaps DEL746-750/T790M/C797S, form open): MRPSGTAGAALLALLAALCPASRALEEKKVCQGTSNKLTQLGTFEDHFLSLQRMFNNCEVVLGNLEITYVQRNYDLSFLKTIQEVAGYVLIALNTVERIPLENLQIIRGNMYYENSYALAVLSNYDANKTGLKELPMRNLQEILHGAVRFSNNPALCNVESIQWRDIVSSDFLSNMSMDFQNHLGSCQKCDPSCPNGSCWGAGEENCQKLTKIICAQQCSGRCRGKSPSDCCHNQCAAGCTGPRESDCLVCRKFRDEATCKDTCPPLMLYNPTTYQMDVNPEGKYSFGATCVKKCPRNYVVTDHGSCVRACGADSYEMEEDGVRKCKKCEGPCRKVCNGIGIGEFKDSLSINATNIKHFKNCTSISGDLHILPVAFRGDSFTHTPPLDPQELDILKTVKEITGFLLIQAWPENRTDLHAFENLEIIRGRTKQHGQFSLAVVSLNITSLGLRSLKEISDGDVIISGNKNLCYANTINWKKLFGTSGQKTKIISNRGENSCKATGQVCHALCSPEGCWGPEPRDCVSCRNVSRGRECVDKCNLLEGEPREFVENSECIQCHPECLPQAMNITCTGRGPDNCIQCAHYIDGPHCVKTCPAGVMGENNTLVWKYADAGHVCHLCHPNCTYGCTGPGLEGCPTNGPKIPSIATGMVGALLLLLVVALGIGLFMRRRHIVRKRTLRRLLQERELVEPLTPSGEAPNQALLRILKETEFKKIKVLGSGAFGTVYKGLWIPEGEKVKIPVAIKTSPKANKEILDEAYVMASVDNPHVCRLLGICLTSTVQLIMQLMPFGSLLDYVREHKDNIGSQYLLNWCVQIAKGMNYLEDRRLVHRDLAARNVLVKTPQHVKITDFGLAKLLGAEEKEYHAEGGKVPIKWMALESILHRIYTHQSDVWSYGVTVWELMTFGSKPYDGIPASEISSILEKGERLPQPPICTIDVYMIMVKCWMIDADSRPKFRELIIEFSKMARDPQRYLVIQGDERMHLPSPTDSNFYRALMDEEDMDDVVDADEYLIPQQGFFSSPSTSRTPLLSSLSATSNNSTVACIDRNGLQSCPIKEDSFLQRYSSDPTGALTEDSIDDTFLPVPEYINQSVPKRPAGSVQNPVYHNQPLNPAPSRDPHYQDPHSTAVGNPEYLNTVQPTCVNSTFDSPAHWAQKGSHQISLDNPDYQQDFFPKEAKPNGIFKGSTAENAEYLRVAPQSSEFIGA
Chain of Ba/F3 EGFR L858R/C797S mutants (P00533 whole entry C797S/L858R): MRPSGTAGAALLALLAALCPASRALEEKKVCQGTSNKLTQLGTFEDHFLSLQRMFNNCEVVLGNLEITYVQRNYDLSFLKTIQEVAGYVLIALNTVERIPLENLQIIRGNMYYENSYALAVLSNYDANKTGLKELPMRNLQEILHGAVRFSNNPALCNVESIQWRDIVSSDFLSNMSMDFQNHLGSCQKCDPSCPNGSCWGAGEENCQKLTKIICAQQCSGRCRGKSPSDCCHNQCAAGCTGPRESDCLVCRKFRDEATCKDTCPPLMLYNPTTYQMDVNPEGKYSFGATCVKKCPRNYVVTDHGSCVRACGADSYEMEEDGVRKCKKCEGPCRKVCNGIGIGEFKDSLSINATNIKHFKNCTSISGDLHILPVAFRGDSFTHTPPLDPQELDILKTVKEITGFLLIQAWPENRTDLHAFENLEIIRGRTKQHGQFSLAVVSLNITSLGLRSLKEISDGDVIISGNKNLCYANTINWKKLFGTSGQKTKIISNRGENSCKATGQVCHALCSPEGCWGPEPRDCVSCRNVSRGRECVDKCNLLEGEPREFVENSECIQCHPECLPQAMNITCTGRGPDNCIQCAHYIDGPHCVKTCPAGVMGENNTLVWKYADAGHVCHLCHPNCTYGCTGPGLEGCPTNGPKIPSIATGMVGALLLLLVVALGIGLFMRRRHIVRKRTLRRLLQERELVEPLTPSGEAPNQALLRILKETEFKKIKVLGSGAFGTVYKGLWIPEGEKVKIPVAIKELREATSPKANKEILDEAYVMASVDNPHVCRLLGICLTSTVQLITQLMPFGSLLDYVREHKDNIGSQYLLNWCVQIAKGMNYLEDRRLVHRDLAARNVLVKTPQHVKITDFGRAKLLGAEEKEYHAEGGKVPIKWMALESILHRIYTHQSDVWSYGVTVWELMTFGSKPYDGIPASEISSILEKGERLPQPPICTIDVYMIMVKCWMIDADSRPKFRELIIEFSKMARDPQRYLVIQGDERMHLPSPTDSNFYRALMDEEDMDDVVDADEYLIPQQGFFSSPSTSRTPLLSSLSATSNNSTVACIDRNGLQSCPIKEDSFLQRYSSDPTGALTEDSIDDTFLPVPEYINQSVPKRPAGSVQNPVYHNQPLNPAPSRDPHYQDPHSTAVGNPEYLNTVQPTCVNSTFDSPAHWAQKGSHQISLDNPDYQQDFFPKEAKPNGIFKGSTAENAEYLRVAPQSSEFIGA
Chain of Ba/F3 EGFR Wild-type (P00533 whole entry, change not shown): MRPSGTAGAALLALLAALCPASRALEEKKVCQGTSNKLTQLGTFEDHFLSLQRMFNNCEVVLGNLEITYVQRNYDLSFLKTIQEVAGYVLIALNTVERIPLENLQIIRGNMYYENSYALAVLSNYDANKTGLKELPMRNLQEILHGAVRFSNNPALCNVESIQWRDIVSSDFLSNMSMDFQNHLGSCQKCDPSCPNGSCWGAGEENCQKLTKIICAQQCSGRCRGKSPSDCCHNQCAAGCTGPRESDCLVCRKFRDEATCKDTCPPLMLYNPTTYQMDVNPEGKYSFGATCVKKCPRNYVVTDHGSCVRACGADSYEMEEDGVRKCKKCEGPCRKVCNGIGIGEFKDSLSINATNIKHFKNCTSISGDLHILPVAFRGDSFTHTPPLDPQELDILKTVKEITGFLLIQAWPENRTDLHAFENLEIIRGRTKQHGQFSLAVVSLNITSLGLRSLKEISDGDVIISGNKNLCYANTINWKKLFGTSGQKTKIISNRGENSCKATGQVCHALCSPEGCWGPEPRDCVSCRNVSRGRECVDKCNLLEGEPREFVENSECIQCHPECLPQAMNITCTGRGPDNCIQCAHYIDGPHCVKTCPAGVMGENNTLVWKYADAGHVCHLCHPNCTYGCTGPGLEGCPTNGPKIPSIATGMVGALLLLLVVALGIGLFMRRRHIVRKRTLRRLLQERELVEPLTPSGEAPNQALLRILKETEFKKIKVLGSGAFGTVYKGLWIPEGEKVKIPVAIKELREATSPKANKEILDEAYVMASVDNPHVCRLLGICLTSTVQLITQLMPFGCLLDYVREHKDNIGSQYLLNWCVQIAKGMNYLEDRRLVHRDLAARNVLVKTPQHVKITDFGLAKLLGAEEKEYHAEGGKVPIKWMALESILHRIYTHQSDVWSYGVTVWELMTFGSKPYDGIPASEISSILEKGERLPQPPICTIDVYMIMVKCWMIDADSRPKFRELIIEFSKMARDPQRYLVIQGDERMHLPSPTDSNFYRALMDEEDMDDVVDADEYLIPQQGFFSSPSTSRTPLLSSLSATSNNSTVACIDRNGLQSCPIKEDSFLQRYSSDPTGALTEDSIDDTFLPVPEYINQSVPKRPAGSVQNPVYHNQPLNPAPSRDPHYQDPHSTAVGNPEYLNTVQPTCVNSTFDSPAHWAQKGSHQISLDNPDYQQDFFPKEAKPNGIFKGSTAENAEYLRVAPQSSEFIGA
Chain of Ba/F3 EGFR Del19/C797S mutants (P00533 with tags, fused parts or gaps DEL746-750/C797S, form open): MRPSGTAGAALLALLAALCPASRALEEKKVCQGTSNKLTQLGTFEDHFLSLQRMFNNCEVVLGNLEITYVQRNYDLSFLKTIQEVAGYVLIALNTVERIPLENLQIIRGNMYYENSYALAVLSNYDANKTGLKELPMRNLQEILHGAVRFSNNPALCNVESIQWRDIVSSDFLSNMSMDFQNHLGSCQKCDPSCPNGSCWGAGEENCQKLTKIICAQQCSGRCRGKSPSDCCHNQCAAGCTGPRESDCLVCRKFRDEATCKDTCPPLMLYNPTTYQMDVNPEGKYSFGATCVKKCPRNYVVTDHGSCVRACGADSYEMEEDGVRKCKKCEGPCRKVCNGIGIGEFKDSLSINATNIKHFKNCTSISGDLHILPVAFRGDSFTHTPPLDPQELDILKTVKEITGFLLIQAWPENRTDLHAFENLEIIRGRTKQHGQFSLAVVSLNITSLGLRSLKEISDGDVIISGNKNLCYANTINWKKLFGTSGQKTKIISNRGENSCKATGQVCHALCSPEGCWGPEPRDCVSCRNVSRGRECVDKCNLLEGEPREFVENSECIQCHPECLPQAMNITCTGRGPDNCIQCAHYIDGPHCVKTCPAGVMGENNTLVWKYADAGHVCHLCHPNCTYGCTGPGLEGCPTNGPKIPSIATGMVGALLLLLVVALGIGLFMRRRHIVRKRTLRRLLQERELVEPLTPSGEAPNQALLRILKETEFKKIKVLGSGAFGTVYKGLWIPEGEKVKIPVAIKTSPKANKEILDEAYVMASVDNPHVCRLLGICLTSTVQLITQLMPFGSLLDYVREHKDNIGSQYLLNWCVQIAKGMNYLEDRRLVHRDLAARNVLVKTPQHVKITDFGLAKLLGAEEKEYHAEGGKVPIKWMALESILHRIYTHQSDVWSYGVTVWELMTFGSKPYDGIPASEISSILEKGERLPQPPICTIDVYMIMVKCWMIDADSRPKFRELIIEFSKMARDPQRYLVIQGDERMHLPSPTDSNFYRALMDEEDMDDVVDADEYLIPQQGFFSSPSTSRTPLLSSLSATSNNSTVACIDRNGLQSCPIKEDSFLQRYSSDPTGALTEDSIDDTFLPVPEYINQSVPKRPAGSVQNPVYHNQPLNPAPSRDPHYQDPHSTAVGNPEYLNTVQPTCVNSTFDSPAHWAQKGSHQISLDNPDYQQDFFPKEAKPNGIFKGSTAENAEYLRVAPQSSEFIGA

For `COc1cc(N2CCC(N3CCN(C)CC3)CC2)c(C)cc1Nc1ncc(C(F)(F)F)c(Nc2ccc3nccnc3c2NS(C)(=O)=O)n1` [Example A20, N-(6-((2-((2-methoxy-5-methyl-4-(4-(4-methylpiperazin-1-yl)piperidin-1-yl)phenyl)amino)-5-(trifluoromethyl)pyrimidin-4-yl)amino)quinoxalin-5-yl)methane sulfonamide], the GI50 at Ba/F3 EGFR Wild-type was above 2000 nM; in test [1], above 2000 nM; in test [2], above 2000 nM; in test [3], above 2000 nM; in test [4], 1590 nM.

As for `COc1cc(N2CCC(N3CCN(C)CC3)CC2)c(C(F)(F)F)cc1Nc1ncc(Cl)c(Nc2ccc3nccnc3c2NS(C)(=O)=O)n1` [Example A7, N-(6-((5-chloro-2-((2-methoxy-4-(4-(4-methylpiperazin-1-yl)piperidin-1-yl)-5-(trifluoromethyl)phenyl)amino)pyrimidin-4-yl)amino)quinoxalin-5-yl)methanesulfonamide], the GI50 is 602 nM on Ba/F3 EGFR Wild-type; 246 nM in test [1]; 169 nM in test [2]; 96 nM in test [3]; 36 nM in test [4].

In the case of `CCc1cc(Nc2ncc(Cl)c(Nc3ccc4nccnc4c3NS(C)(=O)=O)n2)c(OC)cc1N1CCC(N(C)C)CC1` [Example B5, N-(6-((5-chloro-2-((4-(4-(dimethylamino)piperidin-1-yl)-5-ethyl-2-methoxyphenyl)amino)pyrimidin-4-yl)amino)quinoxalin-5-yl)methanesulfonamide], the GI50 was 1860 nM on Ba/F3 EGFR Wild-type; 223 nM in test [1]; 36 nM in test [2]; 30 nM in test [3]; 14 nM in test [4].

Consider `COc1cc(N2CCC(N(C)C)CC2)c(C)cc1Nc1ncc(Cl)c(Nc2ccc3nccnc3c2NS(C)(=O)=O)n1` [Example B4, N-(6-((5-chloro-2-((4-(4-(dimethylamino)piperidin-1-yl)-2-methoxy-5-methylphenyl)amino)pyrimidin-4-yl)amino)quinoxalin-5-yl)methanesulfonamide], for which the GI50 at Ba/F3 EGFR Wild-type came to 10 nM; in test [1], 14 nM; in test [2] it was 9 nM; in test [3], 9 nM; in test [4], 4 nM.

Turning to `COc1cc(N2CCC(N3CCN(C)CC3)CC2)c(C2CC2)cc1Nc1ncc(Cl)c(Nc2ccc3nccnc3c2NS(C)(=O)=O)n1` [Example A5, N-(6-((5-chloro-2-((5-cyclopropyl-2-methoxy-4-(4-(4-methylpiperazin-1-yl)piperidin-1-yl)phenyl)amino)pyrimidin-4-yl)amino)quinoxalin-5-yl)methanesulfonamide], the GI50 at Ba/F3 EGFR Wild-type was 938 nM; in test [1] it was 244 nM; in test [2], 69 nM; in test [3], 76 nM; in test [4], 23 nM.

As to `COc1cc(N2CCC(N(C)C)CC2)ccc1Nc1ncc(Br)c(Nc2ccc3nccnc3c2NS(C)(=O)=O)n1` [Example B3, N-(6-((5-bromo-2-((4-(4-(dimethylamino)piperidin-1-yl)-2-methoxyphenyl)amino)pyrimidin-4-yl)amino)quinoxalin-5-yl)methanesulfonamide], the GI50 came to 725 nM on Ba/F3 EGFR Wild-type; 325 nM in test [1]; 86 nM in test [2]; 147 nM in test [3]; 30 nM in test [4].

Consider `CCc1cc(Nc2ncc(F)c(Nc3ccc4nccnc4c3NS(C)(=O)=O)n2)c(OC)cc1N1CCC(N2CCN(C)CC2)CC1` [Example A9, N-(6-((2-((5-ethyl-2-methoxy-4-(4-(4-methylpiperazin-1-yl)piperidin-1-yl)phenyl)amino)-5-fluoropyrimidin-4-yl)amino)quinoxalin-5-yl)methanesulfonamide], for which the GI50 worked out at 524 nM at Ba/F3 EGFR Wild-type; 106 nM in test [1]; 80 nM in test [2]; 15 nM in test [3]; 62 nM in test [4].

As to `CCc1cc(Nc2ncc(Br)c(Nc3ccc4nccnc4c3NS(C)(=O)=O)n2)c(OC)cc1N1CCC(N(C)C)CC1` [Example B2, N-(6-((5-bromo-2-((4-(4-(dimethylamino)piperidin-1-yl)-5-ethyl-2-methoxyphenyl)amino)pyrimidin-4-yl)amino)quinoxalin-5-yl)methanesulfonamide], the GI50 worked out at 2100 nM on Ba/F3 EGFR Wild-type; 195 nM in test [1]; 13 nM in test [2]; 28 nM in test [3]; 7 nM in test [4].

Turning to `COc1cc(N2CCC(N(C)C)CC2)c(C)cc1Nc1ncc(C(F)(F)F)c(Nc2ccc3nccnc3c2NS(C)(=O)=O)n1` [Example B9, N-(6-((2-((4-(4-(dimethylamino)piperidin-1-yl)-2-methoxy-5-methylphenyl)amino)-5-(trifluoromethyl)pyrimidin-4-yl)amino)quinoxalin-5-yl) methane sulfonamide], the GI50 (at Ba/F3 EGFR Wild-type; in test [1]; in test [2]; in test [3]; in test [4]) was above 2000 nM in each case.

Consider `COc1cc(N2CCC(N3CCN(C)CC3)CC2)c(C)cc1Nc1ncc(F)c(Nc2ccc3nccnc3c2NS(C)(=O)=O)n1` [Example A22, N-(6-((5-fluoro-2-((2-methoxy-5-methyl-4-(4-(4-methylpiperazin-1-yl)piperidin-1-yl)phenyl)amino)pyrimidin-4-yl)amino)quinoxalin-5-yl)methanesulfonamide], for which the GI50 on Ba/F3 EGFR Wild-type was 521 nM; in test [1], 189 nM; in test [2], 369 nM; in test [3], 73 nM; in test [4], 189 nM.

Turning to `COc1cc(N2CCC(N3CCN(C)CC3)CC2)ccc1Nc1ncc(Cl)c(Nc2ccc3nccnc3c2NS(C)(=O)=O)n1` [Example A3, N-(6-((5-chloro-2-((2-methoxy-4-(4-(4-methylpiperazin-1-yl)piperidin-1-yl)phenyl)amino)pyrimidin-4-yl)amino)quinoxalin-5-yl)methanesulfonamide], the GI50 in test [2] came to 97.6 nM; in test [4], 48 nM.

With `COc1cc(C2CCNCC2)ccc1Nc1ncc(F)c(Nc2ccc3nccnc3c2NS(C)(=O)=O)n1` [Example B17, N-(6-((5-fluoro-2-((2-methoxy-4-(piperidin-4-yl)phenyl)amino)pyrimidin-4-yl)amino)quinoxalin-5-yl)methanesulfonamide], the GI50 on Ba/F3 EGFR Wild-type was above 2000 nM; in test [1], above 2000 nM; in test [2], above 2000 nM; in test [3], 1250 nM; in test [4] it was above 2000 nM.

`CC(C)Oc1cc(C2CCNCC2)ccc1Nc1ncc(Cl)c(Nc2ccc3nccnc3c2NS(C)(=O)=O)n1` [Example B22, N-(6-((5-chloro-2-((2-isopropoxy-4-(piperidin-4-yl)phenyl)amino)pyrimidin-4-yl)amino)103quinoxaline-5-yl)methanesulfonamide]: the GI50 (on Ba/F3 EGFR Wild-type; in test [1]; in test [2]; in test [4]) was above 2000 nM each time.
